The subject of data set [1] is NB4 cells. Description: NB4 differentiation (NBT reduction, CD11b). The format is cell-based, human. Particulars: 6 days with drug (10 or 100 μg/ml), washed, 6 days without. The protocol: Differentiation of AML cell lines was assessed by their ability to produce superoxide as measured by reduction of NBT to formazan and by analysis of expression of CD11b surface marker by flow cytometry. For NBT reduction, each cell suspension was mixed with an equal volume of solution containing 1 mg/ml of NBT (Sigma) and 2.5 µg/ml of TPA for 30 minutes at 37° C. After incubation, cells containing the purple formazan deposits and cells devoid of NBT-reducing activity (white cells) in each sample were determined by counting 200 cells under microscope. Data is expressed as a percentage based on the following ratio: purple cells/purple+white cells. For analysis of cell surface antigens, cells were exposed to phycoerythrin (PE)-conjugated murine anti-human CD11b (DAKO Corp., Carpinteria, Calif.). Analysis of fluorescence was performed on a FACScan flow cytometer (Beckton Dickinson, Mountain View, Calif.).

For data set [2], the system named is NB4 cells. Description: NB4 cell proliferation, MTT assay. Type of data set: cell-based, human. Particulars: 12.5-400 μg/ml. The protocol: The NB4 cell line (Lanotte et al., Blood 77, 1080 (1991)) was a gift from Dr. Dan Lindner of the Cleveland Clinic Foundation. […] and U937 cell lines were purchased from American Type Culture Collection (Rockville, Md.). These human […] cell lines were maintained in RPMI 1640 medium supplemented with 10% fetal calf serum (FCS). For cell proliferation assays, cells were cultured at 37° C. in 10% FCS medium containing various amounts of sodium stibogluconate for 6 days. The cell numbers in the cultures were determined by an MTT assay as described previously in Mosmann, J. Immunol. Methods 65, 55 (1983).

The subject of data set [3] is Renca tumors. Nature of the data set: Renca tumors in Balb/c mice. The format is in vivo. The settings on record: end of treatment.
Procedure: Balb/c and athymic nude Balb/c mice (10 weeks old, female, Taconic Farms, Germantown, N.Y.) were inoculated (s.c.) at the flanks with Renca cells (10^6 cells/site). […] Student's t test was used for assessing the significance of tumor volume differences among differential treatment groups. Mouse viability (daily) and body weights (weekly) were also recorded during the study period. At the end of the study, Renca tumors and major internal organs (heart, kidney, liver, lung and spleen) were harvested for histology and immunohistochemistry analysis.
In data set [4] the target is T1, intracellular Flag-PRL-2 (Homo sapiens, UniProt Q12974).
T1 construct: expressed in transfected cells; host or cells: NIH3T3 (pBabepuro, puromycin-selected)
T1 sequence (Q12974 whole entry): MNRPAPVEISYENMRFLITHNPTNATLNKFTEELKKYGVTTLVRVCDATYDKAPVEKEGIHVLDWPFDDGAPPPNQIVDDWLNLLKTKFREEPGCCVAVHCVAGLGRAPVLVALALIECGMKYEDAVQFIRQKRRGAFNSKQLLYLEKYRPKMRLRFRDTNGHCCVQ
Nature of the data set: Immunocomplex PTPase assay, Flag-PRL-2 NIH3T3 transfectants. Type of data set: cell-based. The protocol:
(§1) Immunocomplex PTPase assays were performed to assess the effects of sodium stibogluconate on intracellular PTPases. Cells were untreated or treated with sodium stibogluconate for 5 minutes, washed with fresh medium and then lysed in cold lysis buffer (50 mM Tris, pH 7.4; 150 mM NaCl; 1% NP40; 2 mM PMSF; 20 μg/ml of Aprotinin). The lysates were incubated with an anti-Flag antibody in immunoprecipitation assays. The immunocomplexes were collected with protein G sepharose beads (Pharmacia) and washed in cold lysis buffer for 4 times. […] C. for 18 hrs. 100 µL of malachite green solution (UBI) was added to each reaction prior to measurement of OD660 to quantify the amounts of free phosphate cleaved by the PTPases from the peptide substrate (Pathak et al., J. Imumol. 167, 3391 (2001)). The remaining 10% contents of individual samples were analyzed by SDS-PAGE/Western blotting to quantify the relative amounts of the phosphatase proteins. […]
(§2) The effects of sodium stibogluconate on intracellular PTPases were assessed using NIH3T3 or WM9 transfectants. […]

The nature of data set [5]: Toxicity in nude mice (viability, body weight). The format is in vivo. The protocol: In light of the relatively rapid rate of clearance of the drug in vivo, 440 mg Sb/kg dosage was used to ensure the detection of the effectiveness of the drug for this initial study.
As discussed above, the dosage of sodium stibogluconate used for the treatment of nude mice was 12 mg Sb/mouse, s.c., daily (or approximately 440 mg/kg body weight). […] As an initial step to assess the toxicity of such a high dosage of sodium stibogluconate in nude mice, the effect of sodium stibogluconate on the viability and body weights of WM9 xenografts nude mice during the 25 day period of the study was determined.

In data set [6] the target is T2, intracellular Flag-PRL-3 (Homo sapiens, UniProt O75365).
T2 construct: expressed in transfected cells; host or cells: NIH3T3 (pBabepuro, puromycin-selected)
T2 sequence (O75365 whole entry): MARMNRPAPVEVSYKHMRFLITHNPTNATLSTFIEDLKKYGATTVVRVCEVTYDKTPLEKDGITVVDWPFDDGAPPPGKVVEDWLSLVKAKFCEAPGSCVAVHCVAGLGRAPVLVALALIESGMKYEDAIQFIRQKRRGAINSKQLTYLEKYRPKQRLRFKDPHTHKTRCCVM
Nature of the data set: Immunocomplex PTPase assay, Flag-PRL-3 NIH3T3 transfectants. The format is cell-based. The settings on record: cells treated 5 min. The protocol:
as §1, §2

In data set [7] the test system is U266 cells. Description: U266 multiple myeloma cell growth, MTT assay. The format is cell-based, human. The settings on record: day 6. As for the experimental part: For cell proliferation assays, cells were grown in 10% FCS culture medium containing various amounts of IFNs and/or sodium stibogluconate in 96 well plates and cultured at 37° C. for 3 or 6 days as indicated. The numbers of viable cells in proliferation assays were determined by MTT assays as described in Phatak et al., J. Immunol. 167, 3391 (2001).
For orientation: Tetrazolium assays rely on reduction of a dye to a coloured formazan, in cell work by metabolically active cells.

Consider `O.O.O.O.O.O.O.O.O.O=C([O-])[C@@H]1[O][Sb]2([O-])([O][Sb]34([OH])[O][C@H]([C@H](O)CO)[C@H]([O]3)[C@H](C(=O)[O-])[O]4)[O][C@H]([C@H](O)CO)[C@@H]1[O]2.[Na+].[Na+].[Na+]` [sodium stibogluconate], for which the “reversal of NB4 differentiation after drug removal” value in data set [1] is listed as “not reversed”. In addition, the “proliferation of NB4 cells” value in data set [2] is listed as “markedly inhibited”. Besides, the tolerability of treatment result in data set [3] is recorded as “tolerated well”. Also, the “time required for full removal of effect on intracellular PRL-2 activity” value in data set [4] is reported as “at least 24 hours”. Besides, the “PTPase activity of immunocomplexes from treated Flag-PRL-2 transfectants” value in data set [4] (cells treated 5 min) is given as “lack of PTPase activity”. For the same compound, the tolerability result in data set [5] (12 mg Sb daily (440 mg Sb/kg daily)) is recorded as “well tolerated with no serious side effects”. Further, the “tolerated daily dose in mice, pilot study” value in data set [5] (approximately 700-800 mg Sb/kg) came to 20 mg Sb. For the same compound, in data set [5] (day 25), the “survival of WM9-inoculated nude mice” value is given as “survived until the end of the study”. Moreover, the “PTPase activity of immunocomplexes from treated Flag-PRL-3 transfectants” value in data set [6] is given as “lack of PTPase activity”. Also, the “growth inhibition of U266 cells by the drug by itself” value in data set [7] is “substantial growth inhibition activity”.

For the origin of these results see US20080089860A1, “Therapeutic compositions and methods useful in treating cancer” (priority 2006, published 2008).
